In patent EP4572800B1, “TETRAZINES WITH IMPROVED PROPERTIES” (Tagworks Pharmaceuticals B.V., priority 2023, dated 2024):

What was measured:
[1] = molecular target: cyclooxygenase (COX-1) (Homo sapiens, UniProt P23219); experiment: Enzyme inhibition study, COX-1; format: biochemical, humans; conditions: for % COX-1 inhibition: final concentration of tetrazine 10 µM, human COX-1
Experimental: (§1) In this Example, the inhibition of several physiologically relevant target proteins (viz. enzymes and a transporter) by tetrazines were tested in vitro. The enzymes tested were cyclooxygenase (COX-1), acetyl cholinesterase (ACES), and monoamine oxidase (MAO-B), and the tested transporter was calcium channel L-type, dihydropyridine. COX-1, ACES, and MAO-B from humans was used, while calcium channel L-type, dihydropyridine from rats was used. Standard literature protocols were used, and relevant controls were included to ensure the validity of the results. The target proteins were mixed with tetrazine 2.1 (reference), 2.4, 2.5, 2.7, or 2.10 (final concentration of tetrazine 10 µM) in appropriate buffers. The final concentrations for the respective target proteins depended on the standard protocol used, but for each individual target protein this concentration was the same for the different tetrazines tested. After an appropriate incubation time at an appropriate temperature, the enzymatic activity of the enzyme or the ligand binding in case of the transporter was tested in accordance with standard procedures from literature. From this remaining enzymatic activity or ligand binding, the percentage of inhibition was determined.

[2] = molecular target: T1, monoamine oxidase (MAO-B) (Homo sapiens, UniProt P27338); experiment: Enzyme inhibition study, MAO-B; format: biochemical, humans; conditions: for % MAO-B inhibition: final concentration of tetrazine 10 µM, human MAO-B
T1 sequence (P27338 1-520): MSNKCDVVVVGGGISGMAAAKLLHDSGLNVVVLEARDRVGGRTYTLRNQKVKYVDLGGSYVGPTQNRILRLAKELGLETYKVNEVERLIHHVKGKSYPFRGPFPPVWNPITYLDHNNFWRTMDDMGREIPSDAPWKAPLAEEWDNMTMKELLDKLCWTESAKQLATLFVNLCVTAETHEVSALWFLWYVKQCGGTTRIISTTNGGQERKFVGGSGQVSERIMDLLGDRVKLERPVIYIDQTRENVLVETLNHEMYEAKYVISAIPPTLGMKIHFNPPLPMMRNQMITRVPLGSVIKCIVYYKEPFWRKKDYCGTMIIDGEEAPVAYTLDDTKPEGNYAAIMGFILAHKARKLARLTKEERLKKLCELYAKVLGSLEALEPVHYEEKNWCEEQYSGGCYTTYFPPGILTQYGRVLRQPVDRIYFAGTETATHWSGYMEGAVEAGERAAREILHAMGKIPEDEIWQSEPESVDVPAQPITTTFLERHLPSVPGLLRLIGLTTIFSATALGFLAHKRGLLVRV
Experimental: as §1

[3] = molecular target: acetyl cholinesterase (ACES) (Homo sapiens, UniProt P22303); experiment: Enzyme inhibition study, ACES; format: biochemical, humans; conditions: for % ACES inhibition: final concentration of tetrazine 10 µM, human ACES
Experimental: as §1

[4] = tested on: calcium channel L-type, dihydropyridine; experiment: Transporter ligand binding inhibition, calcium channel L-type; parameters: species or system rats; conditions: for % Calcium channel L-type dihydropyridine inhibition: final concentration of tetrazine 10 µM, rat, ligand binding
Experimental: as §1

[5] = Maximum tolerated dose (MTD) study in mice, single intravenous dose; format: in vivo; conditions: both sexes, Swiss albino, mouse, in vivo, iv, mice, single intravenous dose, observed up to 72 hours post-dose
Experimental: (§2) In this Example, groups of Swiss albino mice (an equal number of male and female animals) were subjected to a single dose of tetrazine 2.1 (reference), 2.4, 2.5, 2.7, or 2.10. Different groups were used for different doses. […] Control groups were also used, wherein mice were only administered vehicle (phosphate-buffered saline (PBS) pH 7.4) without tetrazine ("vehicle control").
(§3) Mice were treated in line with ethical guidelines. […] Environmental controls for the animal room were set to maintain a temperature of 22 to 25°C, humidity of 30-70% RH, and a 12-h light/12-h dark cycle.
(§4) The dose formulations were prepared as follows. Tetrazine 2.1 (reference), 2.4, 2.5, 2.7, or 2.10 was dissolved in PBS pH 7.4 to prepare separate stock solutions of each tetrazine. […] Further dilutions of the tetrazine stock solutions were done with PBS pH 7.4 to achieve a desired concentration.
(§5) Mice were dosed on day 1 by intravenously administering the dose formulation (expressed in µmol of tetrazine per kg body weight of the mouse). Thereafter, the mice were observed up to 72 hours post-dose for any signs of mortality. The number of dead mice after 72 hours ("mortality") was then divided by the original number of mice.

[6] = tested on: Swiss albino mice; experiment: as above; format: in vivo; conditions: 72 hours
Experimental: as §2, §3, §4, §5

Sequence of acetyl cholinesterase (ACES) (P22303 32-614): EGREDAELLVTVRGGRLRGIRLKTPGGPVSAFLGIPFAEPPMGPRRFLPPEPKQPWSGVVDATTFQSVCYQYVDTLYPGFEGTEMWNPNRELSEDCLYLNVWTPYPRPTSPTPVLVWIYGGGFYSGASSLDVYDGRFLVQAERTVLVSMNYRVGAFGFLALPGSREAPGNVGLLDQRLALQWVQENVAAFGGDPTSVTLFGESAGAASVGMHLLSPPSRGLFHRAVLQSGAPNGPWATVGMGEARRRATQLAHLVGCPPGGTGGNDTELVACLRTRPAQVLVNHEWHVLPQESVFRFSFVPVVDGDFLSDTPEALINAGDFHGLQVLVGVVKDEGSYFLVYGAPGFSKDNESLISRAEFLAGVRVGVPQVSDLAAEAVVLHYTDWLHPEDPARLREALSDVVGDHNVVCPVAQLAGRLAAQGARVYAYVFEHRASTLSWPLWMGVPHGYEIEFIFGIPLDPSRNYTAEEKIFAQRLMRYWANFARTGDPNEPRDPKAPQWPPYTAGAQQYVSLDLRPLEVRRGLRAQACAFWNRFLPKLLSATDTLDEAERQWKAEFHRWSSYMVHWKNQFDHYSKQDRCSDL
Sequence of cyclooxygenase (COX-1) (P23219 24-599): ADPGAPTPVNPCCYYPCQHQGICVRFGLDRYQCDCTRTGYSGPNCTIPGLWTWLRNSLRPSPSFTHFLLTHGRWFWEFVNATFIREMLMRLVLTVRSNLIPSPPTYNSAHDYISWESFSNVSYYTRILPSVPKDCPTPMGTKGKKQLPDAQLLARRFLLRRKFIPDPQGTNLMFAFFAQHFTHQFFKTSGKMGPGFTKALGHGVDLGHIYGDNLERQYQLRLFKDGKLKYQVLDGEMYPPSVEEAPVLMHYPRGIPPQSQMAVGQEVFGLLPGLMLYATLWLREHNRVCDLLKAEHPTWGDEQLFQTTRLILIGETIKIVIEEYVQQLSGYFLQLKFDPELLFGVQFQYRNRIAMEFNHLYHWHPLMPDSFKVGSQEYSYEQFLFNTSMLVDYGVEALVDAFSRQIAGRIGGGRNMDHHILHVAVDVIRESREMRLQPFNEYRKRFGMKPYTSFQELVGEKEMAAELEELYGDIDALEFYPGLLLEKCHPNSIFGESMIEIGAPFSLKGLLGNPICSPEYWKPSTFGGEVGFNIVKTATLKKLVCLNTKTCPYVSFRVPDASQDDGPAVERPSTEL

O=C(O)CN(CCN(CC(=O)O)CC(=O)Nc1ccc(-c2nnc(-c3ccccn3)nn2)nc1)CC(=O)O [2.4, 2,2'-((2-((Carboxymethyl)(2-oxo-2-((6-(6-(pyridin-2-yl)-1,2,4,5-tetrazin-3-yl)pyridin-3-yl)amino)ethyl)amino)ethyl)azanediyl)diacetic acid]
% COX-1 inhibition [1]: 53% | % MAO-B inhibition [2]: 20% | % ACES inhibition [3]: 11% | % Calcium channel L-type dihydropyridine inhibition [4]: 10% | MTD at 72 h [5]: ≥ 57 µmol/kg | No. of mortality vs. total no. of mice ([6]; 19 µmol/kg i.v. single dose): 0 out of 6 | No. of mortality vs. total no. of mice ([6]; 57 µmol/kg i.v. single dose): 0 out of 6 | No. of mortality vs. total no. of mice ([6]; 95 µmol/kg i.v. single dose): 4 out of 4

O=C([O-])CN(CCN(CC(=O)[O-])CC(=O)Nc1ccc(-c2nnc(-c3ccccn3)nn2)nc1)CC(=O)[O-].[Ca+2].[Na+] [2.5, Calcium sodium 2-({2-[bis(carboxylatomethyl)amino]ethyl)[({6-[6-(pyridin-2-yl)-1,2,4,5-tetrazin-3-yl]pyridin-3-yl}carbamoyl)methyl]amino)acetate]
% COX-1 inhibition [1]: 18% | % MAO-B inhibition [2]: 9% | % ACES inhibition [3]: -1% | % Calcium channel L-type dihydropyridine inhibition [4]: 1% | No. of mortality vs. total no. of mice ([6]; 85 µmol/kg i.v. single dose): 0 out of 6 | No. of mortality vs. total no. of mice ([6]; 171 µmol/kg i.v. single dose): 0 out of 6 | No. of mortality vs. total no. of mice ([6]; 512 µmol/kg i.v. single dose): 0 out of 6

O=C(O)CCOCCOCCOCCC(=O)Nc1ccc(-c2nnc(-c3ccccn3)nn2)nc1 [2.7, 3-(2-(2-(3-Oxo-3-((6-(6-(pyridin-2-yl)-1,2,4,5-tetrazin-3-yl)pyridin-3-yl)amino)propoxy)ethoxy)ethoxy)propanoic acid]
% COX-1 inhibition [1]: 37% | % MAO-B inhibition [2]: 38% | % ACES inhibition [3]: 22% | % Calcium channel L-type dihydropyridine inhibition [4]: -17% | No. of mortality vs. total no. of mice ([6]; 103 µmol/kg i.v. single dose): 0 out of 6 | No. of mortality vs. total no. of mice ([6]; 207 µmol/kg i.v. single dose): 0 out of 6 | No. of mortality vs. total no. of mice ([6]; 621 µmol/kg i.v. single dose): 0 out of 6

O=C(O)CN(CC(=O)O)CC(=O)Nc1ccc(-c2nnc(-c3ccccn3)nn2)nc1 [2.10, 2,2'-((2-Oxo-2-((6-(6-(pyridin-2-yl)-1,2,4,5-tetrazin-3-yl)pyridin-3-yl)amino)ethyl)azanediyl)diacetic acid]
% COX-1 inhibition [1]: 14% | % MAO-B inhibition [2]: 22% | % ACES inhibition [3]: 5% | % Calcium channel L-type dihydropyridine inhibition [4]: -3% | No. of mortality vs. total no. of mice ([6]; 118 µmol/kg i.v. single dose): 0 out of 6 | No. of mortality vs. total no. of mice ([6]; 177 µmol/kg i.v. single dose): 0 out of 6 | No. of mortality vs. total no. of mice ([6]; 236 µmol/kg i.v. single dose): 0 out of 6

O=C(O)CN1CCN(CC(=O)O)CCN(CC(=O)NCCOCCOCCOCCOCCOCCOCCOCCOCCOCCOCCOCCNC(=O)CCCC(=O)Nc2ccc(-c3nnc(-c4ccccn4)nn3)nc2)CCN(CC(=O)O)CC1 [compound 2.1, 2,2',2''-(10-(2,40,44-Trioxo-44-((6-(6-(pyridine-2-yl)-1,2,4,5-tetrazin-3-yl)pyridine-3-yl)amino)-6,9,12,15,18,21,24,27,30,33,36-undecaoxa-3,39-diazatetratetracontyl)-1,4,7,10-tetraazacyclododecane-1,4,7-triyl)triacetic acid, reference compound]
% COX-1 inhibition [1]: 59% | inhibition of cyclooxygenase (COX-1), in words ([1]; statement in description): strongly inhibits | % MAO-B inhibition [2]: 36% | inhibition of monoamine oxidase (MAO-B), in words ([2]; statement in description): strongly inhibits | % ACES inhibition [3]: 44% | inhibition of acetyl cholinesterase (ACES), in words ([3]; statement in description): strongly inhibits | % Calcium channel L-type dihydropyridine inhibition [4]: 44% | inhibition of calcium channel L-type, dihydropyridine, in words ([4]; statement in description): strongly inhibits | MTD at 72 h [5]: ~39 µmol/kg | No. of mortality vs. total no. of mice ([6]; 8 µmol/kg i.v. single dose): 0 out of 6 | No. of mortality vs. total no. of mice ([6]; 39 µmol/kg i.v. single dose): 0 out of 6 | No. of mortality vs. total no. of mice ([6]; 78 µmol/kg i.v. single dose): 4 out of 6
